The source of these data is patent US9938269B2, “Inhibitor compounds of phosphodiesterase type 10A” (ABBVIE INC., priority 2011, dated 2018).

A short description of series [1]: Determination of the microsomal half-life, rat liver microsomes. The following applies: for microsomal CLint at 0.5 μM: rat, liver microsomes, pH 7.4; for Rat mCl (mikrosomal clearance): rat liver microsomes, 0.5 μM test substance, 0.25 mg microsomal protein, pH 7.4, 37° C., NADPH.
A short description of series [2]: Determination of the microsomal half-life, human liver microsomes. The conditions noted are these: for microsomal CLint at 0.5 μM: human, liver microsomes, pH 7.4; for Human mCl (mikrosomal clearance): human liver microsomes, 0.5 μM test substance, 0.25 mg microsomal protein, pH 7.4, 37° C., NADPH.

Structures can show the parent of a compound that is named as a salt.

In the case of `Cn1nccc1-c1ccnc2c1C(=O)N(CCc1nc3ccccn3n1)C2` [Example 213, 4-(2-Methyl-2H-pyrazol-3-yl)-6-(2-[1,2,4]triazolo[1,5-a]pyridin-2-yl-ethyl)-6,7-dihydro-pyrrolo[3,4-b]pyridin-5-one trifluoroacetate], the microsomal CLint at 0.5 μM in series [1] and in series [2] was less than 100 µL/min/mg throughout.

With `Cc1ccc(COc2cccc3c2C(=O)N(CCc2ccc4ccccc4n2)C3)cn1` [Example 172, 7-(6-Methyl-pyridin-3-ylmethoxy)-2-(2-quinolin-2-yl-ethyl)-2,3-dihydro-isoindol-1-one], the intrinsic clearance (microsomal CLint) at 0.5 μM in series [1] and in series [2] was 100 to 220 µL/min/mg throughout.

In the case of `O=C1c2c(NC3COC3)ccnc2CN1CCc1cn2ccccc2n1` [Example 360, 6-(2-Imidazo[1,2-a]pyridin-2-yl-ethyl)-4-(oxetan-3-ylamino)-6,7-dihydro-pyrrolo[3,4-b]pyridin-5-one], the intrinsic clearance (microsomal CLint) at 0.5 μM in series [1] and in series [2] was less than 100 µL/min/mg throughout.

For `CN(C)CC1CN(c2cccc3c2C(=O)N(CCc2ccc4ccccc4n2)C3)CCO1` (centres unmarked) [Example 229, 7-(2-Dimethylaminomethyl-morpholin-4-yl)-2-(2-quinolin-2-yl-ethyl)-2,3-dihydro-isoindol-1-one trifluoroacetate], the intrinsic clearance (microsomal CLint) at 0.5 μM in series [1] and in series [2] was less than 100 µL/min/mg throughout.

On to `Cn1c(CCN2Cc3nccc(NC4COC4)c3C2=O)nc2ccccc21` [Example 359, 6-[2-(1-Methyl-1H-benzoimidazol-2-yl)-ethyl]-4-(oxetan-3-ylamino)-6,7-dihydro-pyrrolo[3,4-b]pyridin-5-one], for which the microsomal CLint at 0.5 μM in series [1] and in series [2] was less than 100 µL/min/mg in each case.

In the case of `O=C1c2c(cccc2N2CCN(c3cccnc3)CC2)CN1CCc1ccc2ccccc2n1` [Example 159, 7-(4-Pyridin-3-yl-piperazin-1-yl)-2-(2-quinolin-2-yl-ethyl)-2,3-dihydro-isoindol-1-one trifluoroacetate], the microsomal CLint at 0.5 μM in series [1] was 100 to 220 µL/min/mg; in series [2], greater than 220 µL/min/mg.

For `CN1CCN(Cc2ccc(-c3cccc4c3C(=O)N(CCc3ccc5ccccc5n3)C4)cc2)CC1` [Example 167, 7-[4-(4-Methyl-piperazin-1-ylmethyl)-phenyl]-2-(2-quinolin-2-yl-ethyl)-2,3-dihydro-isoindol-1-one trifluoroacetate], the intrinsic metabolic clearance (microsomal CLint) at 0.5 μM is 100 to 220 µL/min/mg in series [1] and greater than 220 µL/min/mg in series [2].

Consider `CN1CCN(c2ccnc3c2C(=O)N(CCc2nc4ccccc4n2C)C3)CC1` [Example 226, 6-[2-(1-Methyl-1H-benzoimidazol-2-yl)-ethyl]-4-(4-methyl-piperazin-1-yl)-6,7-dihydro-pyrrolo[3,4-b]pyridin-5-one trifluoroacetate], for which the microsomal CLint at 0.5 μM in series [1] and in series [2] was less than 100 µL/min/mg throughout.

For `CN1CCN(C2CCN(c3cccc4c3C(=O)N(CCc3ccc5ccccc5n3)C4)CC2)CC1` [Example 100, 7-[4-(4-Methyl-piperazin-1-yl)-piperidin-1-yl]-2-(2-quinolin-2-yl-ethyl)-2,3-dihydro-isoindol-1-one trifluoroacetate], the values for the microsomal CLint at 0.5 μM in series [1] and in series [2] were less than 100 µL/min/mg and 100 to 220 µL/min/mg, respectively.

As for `CN1CC2CN(c3cccc4c3C(=O)N(CCc3ccc5ccccc5n3)C4)CC2C1` (centres unmarked) [Example 154, 7-(5-Methyl-hexahydro-pyrrolo[3,4-c]pyrrol-2-yl)-2-(2-quinolin-2-yl-ethyl)-2,3-dihydro-isoindol-1-one], in series [1], the “Rat mCl (mikrosomal clearance)” value is on record as “−∘”. Besides, the intrinsic metabolic clearance (microsomal CLint) at 0.5 μM in series [2] was less than 100 µL/min/mg.

Regarding `CC1(O)CCC(Nc2ccc(-c3cccc4c3C(=O)N(CCc3ccc5ccccc5n3)C4)cc2Cl)CC1` (centres unmarked) [Example 155, 7-[3-Chloro-4-(4-hydroxy-4-methyl-cyclohexylamino)-phenyl]-2-(2-quinolin-2-yl-ethyl)-2,3-dihydro-isoindol-1-one hydrochloride], the microsomal CLint at 0.5 μM is 100 to 220 µL/min/mg in series [1] and greater than 220 µL/min/mg in series [2].

Consider `CN1CCN(c2cccc3c2C(=O)N(CCc2nc4ccccc4n2C)C3)CC1` [Example 254, 2-[2-(1-Methyl-1H-benzoimidazol-2-yl)-ethyl]-7-(4-methyl-piperazin-1-yl)-2,3-dihydro-isoindol-1-one], for which the microsomal CLint at 0.5 μM in series [1] and in series [2] was less than 100 µL/min/mg throughout.

For the compound `O=C1c2c(cccc2N2C[C@H]3CCCNC[C@H]3C2)CN1CCc1ccc2ccccc2n1` [Example 318, 7-(3aS,8aS)-Octahydro-pyrrolo[3,4-c]azepin-2-yl-2-(2-quinolin-2-yl-ethyl)-2,3-dihydro-isoindol-1-one trifluoroacetate], the microsomal CLint at 0.5 μM in series [1] is greater than 220 µL/min/mg; in series [2], 100 to 220 µL/min/mg.

As to `O=C1c2c(-c3cccnc3)ccnc2CN1CCc1cn2ccccc2n1` [Example 358, 6-(2-Imidazo[1,2-a]pyridin-2-yl-ethyl)-4-pyridin-3-yl-6,7-dihydro-pyrrolo[3,4-b]pyridin-5-one], the intrinsic clearance (microsomal CLint) at 0.5 μM in series [1] and in series [2] was less than 100 µL/min/mg in each case.

Consider `O=C1c2c(cccc2-c2ccncc2)CN1CCc1ccnc(-c2ccccc2)n1` [Example 122, (2-(2-Phenylpyrimidin-4-yl)ethyl)-7-(pyridin-4-yl)isoindolin-1-one], for which, in series [1], the “Rat mCl (mikrosomal clearance)” value is reported as “+ (+: 100-220 μl min^−1 mg^−1)”. The “Human mCl (mikrosomal clearance)” value in series [2] is “++ (++: 100 μl min^−1 mg^−1)”.

Take `CC1CCN(c2cccc3c2C(=O)N(CCc2ccc4ccccc4n2)C3)CC1N` (centres unmarked) [Example 174, 7-(3-Amino-4-methyl-piperidin-1-yl)-2-(2-quinolin-2-yl-ethyl)-2,3-dihydro-isoindol-1-one]: the microsomal CLint at 0.5 μM in series [1] was 100 to 220 µL/min/mg; in series [2], less than 100 µL/min/mg.

For the compound `C=C(C)c1ccc(Oc2ccc(-c3cccc4c3C(=O)N(CCc3ccc5ccccc5n3)C4)cc2)cc1` [Example 146, 7-[4-(4-Isopropenyl-phenoxy)-phenyl]-2-(2-quinolin-2-yl-ethyl)-2,3-dihydro-isoindol-1-one], the microsomal CLint at 0.5 μM in series [1] was 100 to 220 µL/min/mg; in series [2], greater than 220 µL/min/mg.

As for `CCN1CCN(C2CCN(c3cccc4c3C(=O)N(CCc3ccc5ccccc5n3)C4)CC2)CC1` [Example 157, 7-[4-(4-Ethyl-piperazin-1-yl)-piperidin-1-yl]-2-(2-quinolin-2-yl-ethyl)-2,3-dihydro-isoindol-1-one trifluoroacetate], the microsomal CLint at 0.5 μM in series [1] is less than 100 µL/min/mg; in series [2], greater than 220 µL/min/mg.

In the case of `O=C1c2c(-c3ccncc3)ccnc2CN1CCc1cc2ccccc2o1` [compound 391, 6-[2-(Benzofuran-2-yl)ethyl]-4-(4-pyridyl)-7H-pyrrolo[3,4-b]pyridin-5-one], the microsomal CLint at 0.5 μM in series [1] and in series [2] was less than 100 µL/min/mg throughout.

Consider `O=C1c2c(cccc2N2CCS(=O)(=O)CC2)CN1CCc1nc2ccccn2n1` [Example 232, 7-(1,1-Dioxothiomorpholin-4-yl)-2-(2-[1,2,4]triazolo[1,5-a]pyridin-2-yl-ethyl)-2,3-dihydro-isoindol-1-one], for which the intrinsic metabolic clearance (microsomal CLint) at 0.5 μM in series [1] and in series [2] was less than 100 µL/min/mg throughout.

In the case of `CN1CCN(c2cccc3c2CN(CCc2ccc4ccccc4n2)C3=O)CC1` [Example 144, 4-(4-Methyl-piperazin-1-yl)-2-(2-quinolin-2-yl-ethyl)-2,3-dihydro-isoindol-1-one], the microsomal CLint at 0.5 μM was 100 to 220 µL/min/mg in series [1] and less than 100 µL/min/mg in series [2].

Turning to `Cc1nc(CCN2Cc3nccc(-c4ccncc4)c3C2=O)sc1C` [compound 408, 6-[2-(4,5-Dimethylthiazol-2-yl)ethyl]-4-(4-pyridyl)-7H-pyrrolo[3,4-b]pyridin-5-one], the microsomal CLint at 0.5 μM was 100 to 220 µL/min/mg in series [1] and less than 100 µL/min/mg in series [2].

For the compound `C[C@@H]1CN(c2cccc3c2C(=O)N(CCc2ccc4ccccc4n2)C3)CC[C@@H]1c1ccc(OC(F)(F)F)cc1F.O=C(O)C(F)(F)F` [Example 147, 7-[(3S,4S)-4-(2-Fluoro-4-trifluoromethoxy-phenyl)-3-methyl-piperidin-1-yl]-2-(2-quinolin-2-yl-ethyl)-2,3-dihydro-isoindol-1-one trifluororacetate], in series [1], the “Rat mCl (mikrosomal clearance)” value is listed as “+ (+: 100-220 μl min^−1 mg^−1)”. The “Human mCl (mikrosomal clearance)” value in series [2] is on record as “∘ (∘ not avialable or >220 μl min^−1 mg^−1)”.

Consider `COCC1CN(c2cccc3c2C(=O)N(CCc2ccc4ccccc4n2)C3)CCO1` (centres unmarked) [Example 298, 7-(2-Methoxymethyl-morpholin-4-yl)-2-(2-quinolin-2-yl-ethyl)-2,3-dihydro-isoindol-1-one], for which the intrinsic clearance (microsomal CLint) at 0.5 μM in series [1] and in series [2] was 100 to 220 µL/min/mg each time.

Regarding `COc1ccc(N2CCN(C3CCN(C)CC3)CC2)c2c1CN(CCc1ccc3ccccc3n1)C2=O` [Example 269, 4-Methoxy-7-[4-(1-methyl-piperidin-4-yl)-piperazin-1-yl]-2-(2-quinolin-2-yl-ethyl)-2,3-dihydro-isoindol-1-one di-trifluoroacetate], the microsomal CLint at 0.5 μM in series [1] and in series [2] was less than 100 µL/min/mg throughout.

Take `CN1CCN(c2ccnc3c2C(=O)N(CCc2cn4ccccc4n2)C3)CC1` [Example 273, 6-(2-Imidazo[1,2-a]pyridin-2-yl-ethyl)-4-(4-methyl-piperazin-1-yl)-6,7-dihydro-pyrrolo[3,4-b]pyridin-5-one]: the microsomal CLint at 0.5 μM in series [1] and in series [2] was less than 100 µL/min/mg in each case.

In the case of `O=C1c2c(cccc2OCc2ccccn2)CN1CCc1ccc2ccccc2n1` [Example 129, 7-(Pyridin-2-ylmethoxy)-2-(2-quinolin-2-yl-ethyl)-2,3-dihydro-isoindol-1-one], the values for the microsomal CLint at 0.5 μM in series [1] and in series [2] were less than 100 µL/min/mg and 100 to 220 µL/min/mg, respectively.

For `CN1CCN(Cc2cccc3c2C(=O)N(CCc2ccc4ccccc4n2)C3)CC1` [Example 177, 7-(4-Methyl-piperazin-1-ylmethyl)-2-(2-quinolin-2-yl-ethyl)-2,3-dihydro-isoindol-1-one], the microsomal CLint at 0.5 μM in series [1] and in series [2] was less than 100 µL/min/mg throughout.

By microsomal CLint is commonly meant a measure of how fast metabolising enzymes remove a compound, apart from limits set by blood flow. Low readings indicate greater metabolic stability, high ones faster metabolism.
